From US9150568B2, “Compositions and methods for modulating FXR” (NOVARTIS AG, priority 2010, dated 2015) come the findings set out here.

This experiment addresses T1, human Farnesoid X Receptor (FXR) ligand binding domain (GST-FXR LBD) (Homo sapiens, UniProt Q96RI1).
T1 construct: purchased Invitrogen
T1 sequence (Q96RI1 193-472 isoform Q96RI1-2): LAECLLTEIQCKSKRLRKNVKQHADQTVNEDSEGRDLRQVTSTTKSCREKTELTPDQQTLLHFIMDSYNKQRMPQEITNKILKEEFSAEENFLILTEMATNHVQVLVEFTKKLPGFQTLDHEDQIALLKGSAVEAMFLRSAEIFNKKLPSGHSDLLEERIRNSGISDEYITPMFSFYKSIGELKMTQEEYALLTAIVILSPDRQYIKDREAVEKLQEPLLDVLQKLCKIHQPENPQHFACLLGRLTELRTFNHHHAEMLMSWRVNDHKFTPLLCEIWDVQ
The experiment can be described thus: Human GST-FXR LBD co-activator interaction assay (HTRF). Type of experiment: biochemical. As to conditions: GST-FXR LBD / biotin-SRC-1 peptide FRET; response relative to GW4064; read-out: FXR Co-activator interaction assay (EC50). The method, boiled down: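 FRET (HTRF) read-out of ligand-induced binding between GST-FXR LBD and an SRC-1 peptide, detected with anti-GST cryptate and streptavidin-XL665 in buffer with 50 mM KF. Response % was normalized to DMSO and to the maximal GW4064 response. EC50 came from a four-parameter fit.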
Turning to `Cc1cc(C(=O)O)nc(N2C3CC[C@H]2CC(OCc2c(-c4ccccc4F)noc2C2CC2)C3)n1` (stereo partly drawn) [Example 30-68], the EC50 was found to be 13 nM.
`O=C(O)c1ccc(N2[C@@H]3CC[C@H]2C[C@@H](OCc2c(-c4ccccc4F)noc2C2CC2)C3)nc1` [Example 30-69]: the EC50 was 21 nM.
As for `O=C(O)c1ccc2nc(N3C4CC[C@H]3CC(OCc3c(-c5c(Cl)cccc5Cl)noc3C3CC3)C4)sc2c1` (stereo partly drawn) [Example 30-70], the concentration for a half-maximal effect (EC50) came out at 0.2 nM.
For `COc1cc(C(=O)O)cc2sc(N3[C@@H]4CC[C@H]3C[C@@H](OCc3c(-c5c(Cl)cccc5Cl)noc3C3CC3)C4)nc12` [Example 30-71], the EC50 was 0.3 nM.
For `O=C(O)c1ccc(N2C3CC[C@H]2CC(OCc2c(-c4c(Cl)cccc4Cl)noc2C2CC2)C3)nc1` (stereo partly drawn) [Example 30-72] the value was 1.4 nM; for `O=C(O)c1ccc(N2C3CC[C@H]2CC(OCc2c(-c4cccnc4C(F)(F)F)noc2C2CC2)C3)nc1` (stereo partly drawn) [Example 30-73], 74 nM; for `O=C(O)c1csc(N2C3CC[C@H]2CC(OCc2c(-c4ccccc4OC(F)(F)F)noc2C2CC2)C3)n1` (stereo partly drawn) [Example 30-74], 3 nM.
As for `O=C(O)c1cnc(N2C3CC[C@H]2CC(OCc2c(-c4ccccc4OC(F)(F)F)noc2C2CC2)C3)s1` (stereo partly drawn) [Example 30-75], the EC50 came out at 17 nM.
As to `O=C(O)c1cnc(N2C3CC[C@H]2CC(OCc2c(-c4ccccc4C(F)(F)F)noc2C2CC2)C3)s1` (stereo partly drawn) [Example 30-76], the EC50 turned out to be 16 nM.
Take `O=C(O)c1cn2nc(N3C4CC[C@H]3CC(OCc3c(-c5ccccc5C(F)(F)F)noc3C3CC3)C4)ccc2n1` (stereo partly drawn) [Example 31-2]: the concentration for a half-maximal effect (EC50) was determined as 13 nM.
Take `O=C(O)c1cc2nc(N3C4CC[C@H]3CC(OCc3c(-c5ccccc5OC(F)(F)F)noc3C3CC3)C4)ccn2n1` (stereo partly drawn) [Example 31-3]: the EC50 amounted to 2 nM.
For `O=C(O)c1cc2nc(N3C4CC[C@H]3CC(OCc3c(-c5ccccc5C(F)(F)F)noc3C3CC3)C4)ccn2n1` (stereo partly drawn) [Example 31-4], the EC50 amounted to 4 nM.
In the case of `O=C(O)c1cn2nc(N3[C@@H]4CC[C@H]3C[C@@H](OCc3c(-c5c(F)cccc5F)noc3C3CC3)C4)ccc2n1` [Example 31-5] it was 10 nM.
As to `Cc1cccc(F)c1-c1noc(C2CC2)c1CO[C@H]1C[C@H]2CC[C@@H](C1)N2c1ccc2nc(C(=O)O)cn2n1` [Example 31-6], the EC50 was 9 nM.
For `O=C(O)c1cnn2ccc(N3[C@@H]4CC[C@H]3C[C@@H](OCc3c(-c5ccccc5OC(F)(F)F)noc3C3CC3)C4)cc12` [Example 32-2] the value was 4 nM.
